Reference: ChEMBL document CHEMBL5550138, “Histidine-Covalent Stapled Alpha-Helical Peptides Targeting hMcl-1” (J Med Chem, 2024)
Calls of active or inactive are those of the source. The rule behind the calls is not given here. Positions of bridges follow the written chain, without caps; N, C: chain ends. Non-standard residues stand in square brackets, D forms with d. Residues, ends and D or L forms follow the SMILES beside them. *: point of attachment. Benzoyl(2-OMe,5-SO2F) = COc1ccc(S(=O)(=O)F)cc1C(=O)*; S5 = C=CCCC[C@](C)(N)C(=O)O; Dap = NC[C@H](N)C(=O)O

What was measured:
A549 [1] = test: Potentiation of etoposide-induced apoptosis in NucLight Red-labeled human A549 cells assessed as decrease in cell viability at 10 uM measured for 24 to 72 hrs in presence of etoposide by IncuCyte S3 live cell analysis; format: functional, cell-based; conditions: time 24-72 hrs
A549 [2] = test: Induction of apoptosis in NucLight Red-labeled human A549 cells assessed as decrease in cell viability at 10 uM measured for 24 to 72 hrs by IncuCyte S3 live cell analysis; format: functional, cell-based; conditions: time 24-72 hrs
A549 [3] = test: Induction of apoptosis in NucLight Red-labeled human A549 cells assessed as decrease in cell viability at 50 uM measured for 24 to 72 hrs by IncuCyte S3 live cell analysis; format: functional, cell-based; conditions: time 24-72 hrs
[4] = target: T1, Induced myeloid leukemia cell differentiation protein Mcl-1 (Homo sapiens, UniProt Q07820); test: Covalent binding affinity to 15N-labeled human Mcl-1 ligand binding domain (172 to 323 residues) assessed as broadening of binding site His224 resonance at 250 uM in presence of BIM BH3 peptide by 2D[15N,1H]HMQC spectroscopy
[5] = target: T1, Induced myeloid leukemia cell differentiation protein Mcl-1; test: Covalent binding affinity to His residues of Mcl-1 in intact NucLight Red-labeled human A549 cells assessed as stable adduct formation by measuring band shift at 50 to 100 uM incubated for 12 hrs with treatment replenishment for every 3 hrs by western blot analysis; format: cell-based; conditions: dose 50-100 µM
[6] = target: T1, Induced myeloid leukemia cell differentiation protein Mcl-1; test: Covalent binding affinity to His residues of Mcl-1 in NucLight Red-labeled human A549 cell lysates assessed as stable adduct formation by measuring band shift at 100 uM incubated for 3 hrs by western blot analysis; format: subcellular
[7] = target: T1, Induced myeloid leukemia cell differentiation protein Mcl-1; test: Displacement of biotinylated BH3 peptide from N-terminal His6-tagged human Mcl-1 ligand binding domain (172 to 323 residues) expressed in Escherichia coli BL21(DE3) gold pLysS cells preincubated with protein for 2 hrs followed by incubation with BH3 peptide for 2 hrs by DELFIA assay
[8] = target: T1, Induced myeloid leukemia cell differentiation protein Mcl-1; test: Covalent binding affinity to N-terminal His6-tagged human Mcl-1 ligand binding domain (172 to 323 residues) expressed in Escherichia coli BL21(DE3) gold pLysS cells assessed as stable covalent adduct formation by measuring reaction half life at 100 uM incubated for 16 hrs by LC-MS analysis
[9] = target: T1, Induced myeloid leukemia cell differentiation protein Mcl-1; test: Covalent binding affinity to 15N-labeled human Mcl-1 ligand binding domain (172 to 323 residues) assessed as His252 resonance at 250 uM in presence of BIM BH3 peptide by 2D[15N,1H]HMQC spectroscopy
A549 [10] = test: Potentiation of etoposide-induced apoptosis in NucLight Red-labeled human A549 cells assessed as decrease in cell viability at 50 uM measured for 24 to 72 hrs in presence of etoposide by IncuCyte S3 live cell analysis; format: functional, cell-based; conditions: time 24-72 hrs
Homo sapiens [11] = species on record: Homo sapiens; test: Covalent binding affinity to N-terminal His6-tagged human Mcl-1 ligand binding domain (172 to 323 residues) Lys234Ala mutant expressed in Escherichia coli BL21(DE3) gold pLysS cells assessed as increase in mass of protein at 100 uM incubated for 16 hrs by LC-MS analysis
[12] = target: T1, Induced myeloid leukemia cell differentiation protein Mcl-1; test: Covalent binding affinity to N-terminal His6-tagged human Mcl-1 ligand binding domain (172 to 323 residues) expressed in Escherichia coli BL21(DE3) gold pLysS cells assessed as increase in mass of protein at 100 uM incubated for 16 hrs by LC-MS analysis
[13] = target: T1, Induced myeloid leukemia cell differentiation protein Mcl-1; test: (§1) Covalent binding affinity to His252 residue of N-terminal His6-tagged 13C(epsilon)-methionine-labeled human Mcl-1 ligand binding domain (172 to 323 residues) expressed in Escherichia coli BL21(DE3) gold pLysS cells assessed as chemical shift perturbations by measuring 1H methyl resonances for binding site Thr259 and Ile181 residues at 100 uM by 1D 1H-aliphatic NMR spectroscopy
[14] = target: T1, Induced myeloid leukemia cell differentiation protein Mcl-1; test: Covalent binding affinity to N-terminal His6-tagged human Mcl-1 ligand binding domain (172 to 323 residues) expressed in Escherichia coli BL21(DE3) gold pLysS cells assessed as stable covalent adduct formation by measuring reaction half life at 100 uM incubated for 16 hrs by SDS PAGE analysis
[15] = target: T1, Induced myeloid leukemia cell differentiation protein Mcl-1; test: (§2) Covalent binding affinity to N-terminal His6-tagged human Mcl-1 ligand binding domain (172 to 323 residues) expressed in Escherichia coli BL21(DE3) gold pLysS cells assessed as stable covalent adduct formation by measuring band shift at 100 uM incubated for 16 hrs by SDS PAGE analysis
Homo sapiens [16] = species on record: Homo sapiens; test: as §2, with “residues) His252Ala mutant” for “residues)”
[17] = target: T2, Bcl-2-related protein A1 (Homo sapiens) (UniProt Q16548); test: Covalent binding affinity to N-terminal His6-tagged human Bfl-1 (1 to 149 residues) assessed as band shift at 100 uM incubated for 16 hrs by SDS PAGE analysis
T2 sequence (whole entry): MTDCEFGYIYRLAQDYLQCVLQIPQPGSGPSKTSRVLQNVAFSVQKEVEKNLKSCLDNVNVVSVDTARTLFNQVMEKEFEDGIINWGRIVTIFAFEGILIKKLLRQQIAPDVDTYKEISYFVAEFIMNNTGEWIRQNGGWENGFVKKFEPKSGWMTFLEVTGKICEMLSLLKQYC

Homo sapiens [18] = species on record: Homo sapiens; test: as §2, with “residues) Lys234Ala mutant” for “residues)”
A549 [19] = test: Induction of cell lysis in NucLight Red-labeled human A549 cells assessed as cell bursting at 100 uM measured after 20 mins by IncuCyte S3 live cell analysis based fluorescence microscopy; format: toxicity; conditions: a549, 20 min
[20] = target: T1, Induced myeloid leukemia cell differentiation protein Mcl-1; test: as §1, with “13C/1H” for “1H”, “Met250 residue” for “Thr259 and Ile181 residues”, “2D [1H,13C]-aliphatic” for “1D 1H-aliphatic”
[21] = target: T2, Bcl-2-related protein A1 (Homo sapiens); test: Displacement of biotinylated BH3 peptide from N-terminal His6-tagged human Bfl-1 (1 to 149 residues) preincubated with protein for 2 hrs followed by incubation with BH3 peptide for 2 hrs by DELFIA assay; conditions: time 4.0 hrs

T1 sequence (Q07820 whole entry, the tested form may be a part): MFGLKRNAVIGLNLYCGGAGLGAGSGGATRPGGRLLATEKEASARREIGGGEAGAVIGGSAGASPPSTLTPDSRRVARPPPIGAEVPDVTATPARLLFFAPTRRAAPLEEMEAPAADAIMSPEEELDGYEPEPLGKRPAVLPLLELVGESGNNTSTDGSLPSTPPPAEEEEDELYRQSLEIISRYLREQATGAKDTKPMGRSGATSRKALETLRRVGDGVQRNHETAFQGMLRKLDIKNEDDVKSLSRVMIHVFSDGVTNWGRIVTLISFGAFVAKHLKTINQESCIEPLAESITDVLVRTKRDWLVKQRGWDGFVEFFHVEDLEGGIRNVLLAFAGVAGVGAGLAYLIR

| Compound | IC50 [7] | Activity [15] | Activity (Homo sapiens [16]) | Activity [17] | Activity (Homo sapiens [18]) | Activity (A549 [19]) | further results |
| --- | --- | --- | --- | --- | --- | --- | --- |
| Cc1nn(C)c(COc2ccc(N3CCN(S(=O)(=O)N(C)C)CC3)cc2)c1-c1cccc2c(CCCOc3cccc4ccccc34)c(C(=O)O)n(CCN3CCOCC3)c12 |  |  |  |  |  |  | Activity (A549 [1]): Active; Activity (A549 [2]): inactive |
| CC[C@H](C)[C@H](NC(=O)[C@H](CNC(=O)c1cc(S(=O)(=O)F)ccc1OC)NC(C)=O)C(=O)N[C@@H](C)C(=O)N[C@@H](CCC(=O)O)C(=O)N[C@@H](CCC(N)=O)C(=O)N[C@@H](CC(C)C)C(=O)N[C@@H](CCCNC(=N)N)C(=O)N[C@@]1(C)CCC/C=C\CCC[C@@](C)(C(=O)N[C@@H](Cc2ccccc2)C(N)=O)NC(=O)[C@H](CC(=O)O)NC(=O)CNC(=O)[C@H]([C@@H](C)CC)NC1=O (Ac-[Dap](Benzoyl(2-OMe,5-SO2F))IAEQLR[S5]IGD[S5]F-NH2; staple (Z) 8-12) | 18 nM | Active | Active | inactive | Active | Non-Toxic | Activity (A549 [3]): inactive; Activity [4]: Active; Activity [5]: Active; Activity [6]: Active; T1/2 [8]: 6 h; Activity [9]: Active; Activity (A549 [10]): Active; Activity (Homo sapiens [11]): 1740 Da; Activity [12]: 1740 Da; Activity [13]: Active; T1/2 [14]: 6 h; Activity [20]: Active; Activity [21]: inactive |
| CC[C@H](C)[C@H](NC(=O)[C@H](C)NC(=O)[C@H](CCCNC(=N)N)NC(=O)[C@H](CC(C)C)NC(=O)[C@H](CCC(N)=O)NC(=O)[C@]1(C)CCC/C=C/CCC[C@](C)(NC(C)=O)C(=O)N[C@@H](CNC(=O)c2cc(S(=O)(=O)F)ccc2OC)C(=O)N[C@@H]([C@@H](C)CC)C(=O)N[C@@H](C)C(=O)N1)C(=O)NCC(=O)N[C@@H](CC(=O)O)C(=O)N[C@@H](C)C(=O)N[C@@H](Cc1ccccc1)C(N)=O (Ac-[S5][Dap](Benzoyl(2-OMe,5-SO2F))IA[S5]QLRAIGDAF-NH2; staple (E) 1-5) | 17 nM | Active | Active | inactive | Active |  |  |
| CC[C@H](C)[C@H](NC(=O)[C@H](C)NC(=O)[C@H](CCCNC(=N)N)NC(=O)[C@H](CC(C)C)NC(=O)[C@H](CCC(N)=O)NC(=O)[C@]1(C)CCC/C=C/CCC[C@](C)(NC(C)=O)C(=O)N[C@@H](CNC(=O)c2cc(S(=O)(=O)F)ccc2OC)C(=O)N[C@@H]([C@@H](C)CC)C(=O)N[C@@H](C)C(=O)N1)C(=O)NCC(=O)N[C@@H](CC(=O)O)C(=O)N[C@@H](CCCNC(=N)N)C(=O)N[C@@H](Cc1ccccc1)C(N)=O (Ac-[S5][Dap](Benzoyl(2-OMe,5-SO2F))IA[S5]QLRAIGDRF-NH2; staple (E) 1-5) | 35 nM | Active | Active | inactive | Active |  |  |
| CC[C@H](C)[C@H](NC(=O)[C@H](CC(=O)O)NC(=O)[C@H](CCCNC(=N)N)NC(=O)[C@H](CC(C)C)NC(=O)[C@H](CCC(N)=O)NC(=O)[C@]1(C)CCC/C=C/CCC[C@](C)(NC(C)=O)C(=O)N[C@@H](CNC(=O)c2cc(S(=O)(=O)F)ccc2OC)C(=O)N[C@@H]([C@@H](C)CC)C(=O)N[C@@H](C)C(=O)N1)C(=O)NCC(=O)N[C@@H](CC(=O)O)C(=O)N[C@@H](CCCNC(=N)N)C(=O)N[C@@H](Cc1ccccc1)C(N)=O (Ac-[S5][Dap](Benzoyl(2-OMe,5-SO2F))IA[S5]QLRDIGDRF-NH2; staple (E) 1-5) | 30 nM | Active | Active | inactive | Active |  |  |
| CC[C@H](C)[C@H](NC(=O)[C@H](CCCNC(=N)N)NC(=O)[C@H](CCCNC(=N)N)NC(=O)[C@H](CC(C)C)NC(=O)[C@H](CCC(N)=O)NC(=O)[C@]1(C)CCC/C=C/CCC[C@](C)(NC(C)=O)C(=O)N[C@@H](CNC(=O)c2cc(S(=O)(=O)F)ccc2OC)C(=O)N[C@@H]([C@@H](C)CC)C(=O)N[C@@H](C)C(=O)N1)C(=O)NCC(=O)N[C@@H](CC(=O)O)C(=O)N[C@@H](CCCNC(=N)N)C(=O)N[C@@H](Cc1ccccc1)C(N)=O (Ac-[S5][Dap](Benzoyl(2-OMe,5-SO2F))IA[S5]QLRRIGDRF-NH2; staple (E) 1-5) | 24 nM | Active | Active | inactive | Active | Toxic |  |
